US8778643B2, “Methods for increasing lipid levels and producing triacylglycerols in algae” (priority 2012, dated 2014)
Like-named read-outs stand apart in the source and are kept apart here.

What was measured:
[1] = system: CDK; settings: CDKs; cited from earlier work
[2] = system: Nannochloris sp.; test: Microplate assay: growth (absorbance 680 nm) and intracellular lipids (Nile Red fluorescence); type: cell-based; settings: for Absorbance (percent increase) / Nile Red percent increase: initial microplate screen, relative to control; for Nile Red Fluorescence % Increase: initial screening, p<0.05; for % Lipid increase based on Nile red fluorescence intensity: (water), t=day 0
[3] = biological target: histone lysine methyltransferase G9a (Homo sapiens, UniProt Q96KQ7); settings: cited from earlier work
[4] = system: Nannochloropsis salina; test: 500 mL batch culture: growth, dry weight and lipid extract (gravimetric); type: cell-based; settings: for increase in lipid levels: batch cultures; for Lipid productivity / Lipid content / Change in Lipids / Specific Growth Rate: N. salina, 500 mL culture; for Lipid content: dried lipid extract per dry biomass; for Change in Lipids: gravimetric, relative to averaged control without DMSO; for Specific Growth Rate: mid-exponential growth phase
Protocol: (§1) Batch cultures were grown in 500 mL Pyrex media bottles with stirring and air bubbling (homemade manifold with Petco air pump, 2-4% CO2). Incoming air was sterile filtered by Polyvent 4 disposable filters (Whatman, Kent, UK). […] To minimize bacterial contamination, all equipment and materials were autoclaved and media was added to flask in a Purifier Vertical Clean bench (Labconco, Kansas City, Mo.). […] The amount of DMSO is standardized for all experiments to 0.4%.
(§2) For all compound cultures, the 2 mL DMSO stock solution was added to media (without algae) first and mixed well. Control cultures were grown without DMSO. DMSO controls consisted of 0.04-1.0% DMSO. After the addition of algae and media, the container was plugged with a bug stopper vented closure cap and mixed thoroughly. Absorbance is measured immediately for Day 0 analysis. Afterward, absorbance was measured every 1-2 days with a cuvette (1 mL volume) on the Thermo Scientific Genesys 10S V is Spectrophotometer (ThermoFisher, San Jose) at 680 nm.
(§3) Batch cultures were also repeated in triplicate and compared to a control culture grown at the same time. Algae were harvested and lipids were extracted for gravimetric analysis.
Cultures were harvested at day 6 in stationary phase. Cultures were pelleted, lyophilized, and extracted side-by-side. The experiment was performed in triplicate.
The nonpolar algal extracts were harvested from 500 mL cultures when indicated on growth curves, a minimum of 3 days into stationary phase. […] Cells were crushed and nonpolar lipids were extracted by sonication (Fisher Scientific Model 120 Sonic Dismembrator, ThermoFisher, San Jose) for 1 minute in chloroform, followed by chloroform-methanol extractions, washed with PBS butter, and dried under vacuum.^55-60 The crude non-polar algae extracts were then analyzed by ^1H Nuclear Magnetic Resonance (^1H NMR) for verification of TAG presence and examination of the purity of the extract (determination of level of chlorophyll).
(§4) Cell density was monitored by measuring absorbance at 680 nm every 1-2 days.
(§5) 500-mL cultures were harvested 6 days into stationary phase based on absorbance values. Cells were concentrated by centrifugation and lyophilization to remove water. Nonpolar lipids were extracted by sonication and solvent (chloroform-methanol and PBS buffer). […] Changes in lipid levels for batch cultures were determined by crude lipid extract mass.

[5] = DPPH free radical scavenging activity; cited from earlier work
[6] = system: Nannochloropsis salina; settings: for % Inc: increase of lipid production, best conc. 10 nM
Protocol: (§6) Stock cultures were aerated by stirring with bubbling air (homemade manifold with Petco air pump, 2-4% CO2) or by orbital shaking (Thermo Scientific MAXQ 2000) at a constant speed of 150 rpm at 22±3° C. with a 16:8 hour light/dark cycle. Stocks were kept at stationary phase for use. Algae were prepared as dictated by culture center.
(§7) Compounds were selected based on reported biological activity in non-microalgae organisms. To ensure that compounds retained their quality, they were stored under advised conditions after purchasing from the manufacturer. Solutions of all assay compounds were prepared as 10 mM stock solutions by dissolving in DMSO in 2-dram amber vials and then stored in darkness −20° C. 96-well PCR plates were used to create a stock plate layout that was then transferred to the algae microplates. A plate map was used to distribute each compound to a well based on molecule name, collection number, and CAS number. For 20 μM and 200 nM assay plates, 10 mM compound stock in DMSO was diluted into plate maps of 5 mM and 50 μM assay stocks, respectively.
(§8) All materials for assay experiments were autoclaved before each use to maintain axenic algae cultures. Algae species were checked for homogeneity using a TS-100 light microscope (Nikon, Japan). […] Diluted stock solutions were made immediately prior to use for consistency and optimal plate growth. Cell density was measured on a Thermo Scientific Genesys 10S Vis Spectrophotometer (ThermoFisher, San Jose), using a 1 mL cuvette at 680 nm.
(§9) Plates were originally run in triplicate, before replicates were increased to quadruplicate, along with a separate control plate to compare growth. Due to extensive evaporation in exterior wells over time, our unique algae plate layout was designed to use the 60 interior wells out of 96 wells for the experiment. The 36 outer wells were filled with Millipore water and media to prevent evaporation and edge effects in the inner algae wells, as well as serve as blanks. The 60 wells with algae contained a total volume of 251 μL (100 μL of media+DMSO compound stock +150 μL dilute algae stock). For 20 μM and 200 nM assay plates, 10 mM compound stock in DMSO is diluted into plate maps of 5 mM and 50 μM assay stocks, respectively. […] Plates were parafilmed during growth to limit the amount of evaporation that can occur. Plates were numbered, and numerically ordered to ensure they got the same shaker space.
(§10) The shakers are kept at a constant shaking of 150 rpm. Ambient temperature is 22±3° C.

[7] = system: fatty acid and sterol synthesis; settings: cited from earlier work
[8] = system: Phaeodactylum tricornutum; test: 500 mL batch culture: growth, dry weight and lipid extract (gravimetric); type: cell-based; settings: P. tricornutum, 500 mL culture, 120 nM
Protocol: as §1, §2, §3
(§11) The nonpolar algal extracts were harvested from 500 mL cultures when indicated on growth curves, a minimum of 3 days into stationary phase.
as §4, §5

[9] = biological target: EGFR tyrosine kinase (Homo sapiens, UniProt P00533); settings: cited from earlier work
[10] = system: Phaeodactylum tricornutum; test: Microplate assay: growth (absorbance 680 nm) and intracellular lipids (Nile Red fluorescence); type: cell-based
Protocol: as §6, §7, §8, §9, §10

[11] = biological target: p70 S6 kinase activation; settings: signaling that leads to p70 S6 kinase activation; cited from earlier work
[12] = system: Nannochloropsis oculata; settings: for Nile Red Fluorescence % Increase / % change in abs / % in NR fl: N. oculata; for Nile Red Fluorescence % Increase: compounds tested at 200 nM, initial screening, p<0.05
[13] = system: PKC; settings: cited from earlier work
[14] = system: MLCK; settings: cited from earlier work
[15] = biological target: T1, PKA (rat liver catalytic subunit) (Rattus norvegicus, UniProt P27791); settings: cited from earlier work
T1 construct: rat liver catalytic subunit; host or cells: rat liver

[16] = system: microsomal lipid peroxidation; settings: cited from earlier work
[17] = biological target: c-Jun N-terminal kinase; settings: cited from earlier work
[18] = biological target: Cdk2/cyclin E (Homo sapiens, UniProt P24941); settings: cited from earlier work
[19] = biological target: Cdk2/cyclin A (Homo sapiens, UniProt P24941); settings: Cdk2/cyclin A; cited from earlier work
[20] = biological target: PTP1b (Homo sapiens, UniProt P18031); settings: cited from earlier work
[21] = biological target: fatty acid amide hydrolase (Homo sapiens, UniProt O00519); settings: cited from earlier work
[22] = system: Nannochloris sp.; test: 500 mL batch culture: growth, dry weight and lipid extract (gravimetric); type: cell-based; settings: Nannochloris sp., 500 mL culture, 40 nM
Protocol: as §1, §2, §3, §11, §4, §5

[23] = system: Nannochloropsis oculata; test: Lipid composition of batch culture extracts (fatty acid saturation / PUFA by 1H NMR, MALDI-TOF, GC/MS); type: cell-based; settings: N. oculata, 40 nM, n=1
[24] = biological target: Diacylglycerol lipase; settings: cited from earlier work
[25] = system: microalgae; test: 500 mL batch culture (growth, gravimetric lipids), algae strain not stated; type: cell-based; settings: 500 mL batch cultures (Table 30)
[26] = system: ERK signaling pathway; settings: cited from earlier work
[27] = biological target: PKA (Homo sapiens, UniProt P17612); settings: cited from earlier work
[28] = biological target: phosphatidylinositol-specific phospholipase C (PI-PLC); settings: cited from earlier work
[29] = Nannochloris sp., compounds tested at 200 nM
[30] = Nannochloris sp., compounds tested at 20 μM
[31] = gravimetric, relative to averaged control without DMSO
[32] = 40 μM, initial microplate screen, relative to control

Chain of histone lysine methyltransferase G9a (Q96KQ7 whole entry): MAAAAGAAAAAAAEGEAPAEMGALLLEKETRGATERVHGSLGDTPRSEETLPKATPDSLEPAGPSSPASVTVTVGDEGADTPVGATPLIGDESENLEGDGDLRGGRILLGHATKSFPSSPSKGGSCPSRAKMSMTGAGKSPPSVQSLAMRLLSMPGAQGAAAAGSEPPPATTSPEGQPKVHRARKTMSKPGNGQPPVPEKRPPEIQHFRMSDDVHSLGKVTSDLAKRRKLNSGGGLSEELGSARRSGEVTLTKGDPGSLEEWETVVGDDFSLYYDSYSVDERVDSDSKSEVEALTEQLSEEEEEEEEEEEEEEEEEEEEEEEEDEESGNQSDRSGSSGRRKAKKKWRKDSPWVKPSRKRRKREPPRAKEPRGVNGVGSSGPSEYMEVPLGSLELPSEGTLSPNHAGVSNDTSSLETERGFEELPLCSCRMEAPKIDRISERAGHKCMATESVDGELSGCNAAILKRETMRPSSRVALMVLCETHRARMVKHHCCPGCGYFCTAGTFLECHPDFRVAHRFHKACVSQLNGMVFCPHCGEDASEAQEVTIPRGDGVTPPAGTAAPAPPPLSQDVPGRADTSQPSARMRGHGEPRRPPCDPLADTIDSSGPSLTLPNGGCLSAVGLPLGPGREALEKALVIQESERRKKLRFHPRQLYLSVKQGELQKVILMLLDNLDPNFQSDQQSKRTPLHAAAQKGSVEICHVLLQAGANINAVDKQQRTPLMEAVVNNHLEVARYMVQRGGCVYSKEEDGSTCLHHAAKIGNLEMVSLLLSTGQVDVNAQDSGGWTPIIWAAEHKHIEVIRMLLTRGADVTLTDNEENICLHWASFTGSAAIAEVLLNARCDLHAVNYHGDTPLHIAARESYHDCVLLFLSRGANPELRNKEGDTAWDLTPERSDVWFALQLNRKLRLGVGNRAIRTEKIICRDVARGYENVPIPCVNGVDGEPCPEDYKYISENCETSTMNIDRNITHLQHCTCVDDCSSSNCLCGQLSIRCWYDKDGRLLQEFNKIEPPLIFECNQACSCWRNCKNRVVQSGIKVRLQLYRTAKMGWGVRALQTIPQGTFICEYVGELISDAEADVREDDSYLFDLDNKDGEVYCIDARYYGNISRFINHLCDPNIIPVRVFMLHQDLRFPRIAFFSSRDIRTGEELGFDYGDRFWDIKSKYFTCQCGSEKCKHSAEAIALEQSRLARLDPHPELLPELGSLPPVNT
Chain of EGFR tyrosine kinase (P00533 25-1210): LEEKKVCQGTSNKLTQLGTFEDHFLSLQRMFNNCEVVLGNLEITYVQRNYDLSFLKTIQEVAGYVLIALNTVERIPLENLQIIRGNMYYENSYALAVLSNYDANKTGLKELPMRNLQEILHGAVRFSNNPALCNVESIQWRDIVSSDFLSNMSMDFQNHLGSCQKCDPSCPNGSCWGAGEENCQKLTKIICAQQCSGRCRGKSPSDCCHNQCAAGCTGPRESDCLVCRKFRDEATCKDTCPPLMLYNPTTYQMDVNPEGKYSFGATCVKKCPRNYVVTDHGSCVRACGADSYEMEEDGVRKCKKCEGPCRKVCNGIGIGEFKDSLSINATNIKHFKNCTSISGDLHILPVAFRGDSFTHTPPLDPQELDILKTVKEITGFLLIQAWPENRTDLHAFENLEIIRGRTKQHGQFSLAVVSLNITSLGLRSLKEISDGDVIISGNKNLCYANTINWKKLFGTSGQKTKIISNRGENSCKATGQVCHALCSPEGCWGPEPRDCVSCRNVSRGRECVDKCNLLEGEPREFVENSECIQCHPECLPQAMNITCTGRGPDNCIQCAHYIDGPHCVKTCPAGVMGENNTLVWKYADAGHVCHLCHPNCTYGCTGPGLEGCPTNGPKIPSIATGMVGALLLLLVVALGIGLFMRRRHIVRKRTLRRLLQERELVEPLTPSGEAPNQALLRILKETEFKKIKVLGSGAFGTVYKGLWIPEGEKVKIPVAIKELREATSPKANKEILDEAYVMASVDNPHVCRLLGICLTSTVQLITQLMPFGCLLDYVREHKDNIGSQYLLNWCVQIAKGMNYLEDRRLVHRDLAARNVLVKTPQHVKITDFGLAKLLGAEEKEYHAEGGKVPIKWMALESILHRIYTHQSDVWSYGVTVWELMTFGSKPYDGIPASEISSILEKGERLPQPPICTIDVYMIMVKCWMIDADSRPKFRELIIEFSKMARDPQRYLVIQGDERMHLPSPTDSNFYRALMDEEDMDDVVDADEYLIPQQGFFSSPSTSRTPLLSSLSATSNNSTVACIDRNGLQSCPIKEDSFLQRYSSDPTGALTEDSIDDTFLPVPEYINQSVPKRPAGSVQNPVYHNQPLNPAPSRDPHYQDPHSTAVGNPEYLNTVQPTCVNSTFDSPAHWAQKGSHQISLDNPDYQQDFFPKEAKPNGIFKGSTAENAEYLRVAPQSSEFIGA
Chain of fatty acid amide hydrolase (O00519 whole entry): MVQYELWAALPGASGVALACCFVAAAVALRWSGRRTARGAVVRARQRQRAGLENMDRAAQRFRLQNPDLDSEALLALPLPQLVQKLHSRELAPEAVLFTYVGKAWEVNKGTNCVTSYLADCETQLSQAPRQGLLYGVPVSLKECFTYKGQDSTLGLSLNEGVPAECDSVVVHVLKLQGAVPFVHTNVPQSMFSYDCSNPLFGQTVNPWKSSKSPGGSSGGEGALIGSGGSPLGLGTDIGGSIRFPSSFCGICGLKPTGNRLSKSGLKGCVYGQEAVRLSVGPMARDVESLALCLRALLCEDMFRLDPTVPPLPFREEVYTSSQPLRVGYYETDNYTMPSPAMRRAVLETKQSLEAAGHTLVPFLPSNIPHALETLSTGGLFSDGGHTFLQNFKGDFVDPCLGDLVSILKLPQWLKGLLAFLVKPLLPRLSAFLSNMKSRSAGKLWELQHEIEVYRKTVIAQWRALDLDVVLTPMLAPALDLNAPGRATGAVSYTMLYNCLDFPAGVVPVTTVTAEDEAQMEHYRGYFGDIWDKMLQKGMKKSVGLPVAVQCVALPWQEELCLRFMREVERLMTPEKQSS
Chain of PTP1b (P18031 whole entry, species assumed): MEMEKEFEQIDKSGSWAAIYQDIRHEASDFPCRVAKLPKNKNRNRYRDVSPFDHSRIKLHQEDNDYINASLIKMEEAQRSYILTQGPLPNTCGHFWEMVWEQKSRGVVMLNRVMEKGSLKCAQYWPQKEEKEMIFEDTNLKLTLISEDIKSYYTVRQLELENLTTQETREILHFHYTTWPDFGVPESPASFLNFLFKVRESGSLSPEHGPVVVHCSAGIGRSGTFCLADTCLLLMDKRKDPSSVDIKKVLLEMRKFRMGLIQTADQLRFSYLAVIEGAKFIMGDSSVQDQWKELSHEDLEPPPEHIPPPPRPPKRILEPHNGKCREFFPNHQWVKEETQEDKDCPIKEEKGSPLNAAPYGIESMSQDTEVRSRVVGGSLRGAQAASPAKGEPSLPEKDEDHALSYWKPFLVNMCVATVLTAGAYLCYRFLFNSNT

Compound: COc1ccc2c(c1)/C(=C/c1cnc[nH]1)C(=O)N2 [SU9516]
- IC50 [1]: 22 nM

Compound: COC(=O)C=Cc1cc(O)ccc1O [Erbstatin analog, 2,5-Dihydroxymethylcinnamate]
- Absorbance (percent increase) ([2]; 200 nM): −7.6%
- Nile Red percent increase ([2]; 200 nM): 90.7%
- Nile Red Fluorescence % Increase [2, 29]: 80.2%
- Nile Red Fluorescence % Increase [2, 30]: 40.5%
- IC50 [3]: 2820 nM

Compound: 2-tert-Butyl-4-hydroxyanisole and 3-tert-butyl-4-hydroxyanisole (mixture) [BHA]
- increase in lipid levels ([4]; 4 nM): 63%
- Lipid productivity ([4]; 4 nM): 8.1 ± 0.6 mgL^−1day^−1
- Lipid content ([4]; 4 nM): 28.8 ± 11.4 % w/w
- Change in Lipids ([4]; 4 nM): 63%
- Specific Growth Rate ([4]; 4 nM): 0.23 ± 0.002 day⁻¹
- IC50 [5]: 43000 nM
- % Inc ([6]; N. salina): 290.14%

Compound: NC(=O)c1ncn([C@@H]2O[C@H](COP(=O)(O)O)[C@@H](O)[C@H]2O)c1N [AICAR, [(2R,3S,4R,5R)-5-(4-Carbamoyl-5-amino-imidazol-1-yl)-3,4-dihydroxyoxolan-2-yl]methyl dihydrogen phosphate]
- inhibitor of fatty acid and sterol synthesis (concentration) [7]: synthesis (0.5 mM), inactivates HMG-CoA reductase
- Lipid productivity [8]: 7.0 ± 0.9 mgL^−1day^−1
- Lipid content ([8]; dried lipid extract per dry biomass): 22.7 ± 1.3 % w/w
- Change in Lipids [8, 31]: 45%
- Specific Growth Rate ([8]; mid-exponential growth phase): 0.34 ± 0.04 day⁻¹

Compound: O=C(/C=C/c1ccc(O)c(O)c1)c1ccc(O)cc1O [Butein, (E)-1-(2,4-dihydroxyphenyl)-3-(3,4-dihydroxyphenyl)prop-2-en-1-one]
- IC50 [9]: 65000 nM
- % increase (lipid production) ([10]; 54 nM-40 μM (H2O)): 1-116 (H2O) %
- % increase (lipid production) ([10]; 40 μM): 14%

Compound: CO[C@H]1C[C@@H]2CC[C@@H](C)[C@@](O)(O2)C(=O)C(=O)N2CCCC[C@H]2C(=O)O[C@H]([C@H](C)C[C@@H]2CC[C@@H](O)[C@H](OC)C2)CC(=O)[C@H](C)/C=C(\C)[C@@H](O)[C@@H](OC)C(=O)[C@H](C)C[C@H](C)/C=C/C=C/C=C/1C [Rapamycin, (3S,6R,7E,9R,10R,12R,14S,15E,17E,19E,21S,23S,26R,27R,34aS)-9,10,12,13,14,21,22,23,24,25,26,27,32,33,34,34a-hexadecahydro-9,27-dihydroxy-3-[(1R)-2-[(1S,3R,4R)-4-hydroxy-3-methoxycyclohexyl]-1-methylethyl]-10,21-dimethoxy-6,8,12,14,20,26-hexamethyl-23,27-epoxy-3H-pyrido[2,1-c][1,4]-oxaazacyclohentriacontine-1,5,11,28,29(4H,6H,31H)-pentone]
- IC50 [11]: 0.05 nM
- Absorbance (percent increase) ([2]; 200 nM): −5.9%
- Nile Red percent increase ([2]; 200 nM): 107.9%
- Nile Red Fluorescence % Increase [2, 30]: 117.3%
- Nile Red Fluorescence % Increase [12]: 141.6%

Compound: Oc1cc(O)cc(/C=C/c2ccc(O)c(O)c2)c1 [Piceatannol, 3,3′,4,5′-Tetrahydroxy-trans-stilbene]
- IC50 ([13]; PKC): 8000 nM
- Nile Red percent increase ([6]; 40 μM, dose-response microplate screen): 195%
- % increase (lipid production) ([6]; 55-40 μM): 0.3-148%
- % increase (lipid production) ([10]; 4-40 μM (H2O)): 7-41 (H2O) %
- IC50 [14]: 12000 nM
- IC50 [15]: 3000 nM

Compound: CCCOC(=O)c1cc(O)c(O)c(O)c1 [propyl gallate, propyl 3,4,5-trihydroxybenzoate]
- increase in lipid levels ([4]; 40 nM): 67%
- Lipid productivity ([4]; 40 nM): 8.3 ± 1.7 mgL^−1day^−1
- Lipid content ([4]; 40 nM): 25.9 ± 11.4 % w/w
- Change in Lipids ([4]; 40 nM): 67%
- Specific Growth Rate ([4]; 40 nM): 0.23 ± 0.002 day⁻¹
- % Inc ([6]; N. salina): 264.42%
- IC50 [16]: 4500 nM

Compound: CCCCc1c(-c2ccc(O)cc2)[nH]c2nccnc12 [Aloisine A, 7-n-Butyl-6-(4-hydroxyphenyl)[5H]pyrrolo[2,3-b]pyrazine]
- IC50 [17]: 3000 to 10000 nM
- Absorbance (percent increase) ([2]; 200 nM): −5.4%
- Nile Red percent increase ([2]; 200 nM): 125.9%
- Absorbance (percent increase) ([2]; 20 μM): −12.6%
- Nile Red percent increase ([2]; 20 μM): 84.1%
- IC50 [18]: 400 nM
- Nile Red Fluorescence % Increase [12]: 117.7%
- IC50 [19]: 120 nM

Compound: CCN(NO)C1=CC(=O)C(=O)C=C1 [Ethyl 3,4-dephostatin, 4-[(hydroxyamino)-ethylamino]cyclohexa-3,5-diene-1,2-dione]
- % increase (lipid production) ([6]; 0.0252-165.6 nM (H2O)): 8-61%
- % increase (lipid production) ([6]; 0.0252-165.6 nM, not marked H2O): 8-20%
- Absorbance (percent increase) [10, 32]: −2.4%
- Nile Red percent increase [10, 32]: 115.0%
- % increase (lipid production) ([10]; 0.0252-165.6 nM (H2O)): 8-106%
- % increase (lipid production) ([10]; 2-18.4 nM): 3-67%
- % increase (lipid production) ([12]; 0.0252-165.6, concentrations giving an increase: (none)): (none)
- IC50 [20]: 3200 nM

Compound: CCCCNC(=O)Oc1ccc(OCc2ccccc2)cc1 [FAAH Inhibitor I, 4-Benzyloxyphenyl-n-butylcarbamate]
- % Lipid increase based on Nile red fluorescence intensity ([2]; Nannochloris sp., 0.6 nM): 189%
- % Increase based on Nile Red Fluorescence Intensity ([2]; Nannochloris sp., 0.6 nM, dissolved in water, added t=day 0): 189%
- % Increase based on Nile Red Fluorescence Intensity ([2]; Nannochloris sp., 49 nM, dissolved in water, added t=day 0): 160%
- % Increase based on Nile Red Fluorescence Intensity ([2]; Nannochloris sp., 440 nM, dissolved in water, added t=day 0): 161%
- % Increase based on Nile Red Fluorescence Intensity ([2]; Nannochloris sp., 1.3 μM, dissolved in water, added t=day 0): 152%
- IC50 [21]: 396 nM

Compound: CCCCCCCCCCC[C@@H](C[C@@H]1OC(=O)[C@H]1CCCCCC)OC(=O)[C@H](CC(C)C)NC=O [orlistat, (S)-((S)-1-((2S,3S)-3-hexyl-4-oxooxetan-2-yl)tridecan-2-yl) 2-formamido-4-methylpentanoate]
- Lipid productivity [22]: 5.1 ± 1.5 mgL^−1day^−1
- Change in Lipids [22, 31]: 72%
- Specific Growth Rate ([22]; mid-exponential growth phase): 0.20 ± 0.01 day⁻¹
- SFAs (%) ([23]; Normal 0 ± 1): 3%
- MUFAs (%) ([23]; Normal 4 ± 7): 29%
- n3 PUFAs (%) ([23]; Normal 28 ± 4): 16%
- PUFAs (%) ([23]; Normal 96 ± 7): 68%
- % change in abs ([6]; N. salina, 40 μM): −31.92%
- % in NR fl ([6]; N. salina, 40 μM): 61.76%
- IC50 [24]: 1000 nM
- effect on growth and lipid levels [25]: positive increases in growth and lipid levels
- % change in abs ([12]; 13 nM): 0.83%
- % in NR fl ([12]; 13 nM): 63.67%

Compound: Cn1cnc2c1c(=O)[nH]c(=O)n2C [Theobromine]
- Nile Red Fluorescence % Increase [2, 29]: 34.3%
- potency [26]: (potency = 0.004 μM)

Compound: CN(C)CCCn1cc(C2=C(c3c[nH]c4ccccc34)C(=O)NC2=O)c2ccccc21 [Bisindolylmaleimide, 2-[1-(3-Dimethylaminopropyl)-1H-indol-3-yl]-3-(1H-indol-3-yl)-maleimide]
- % Increase based on Nile Red Fluorescence Intensity ([2]; 0 h, 1.3 µM): 70%
- % Lipid increase based on Nile red fluorescence intensity ([2]; Nannochloris sp., 49 nM): 141%
- Ki [13]: 10 nM
- Ki [27]: 2000 nM

Compound: CCCCCCCCCCCCCCCCCCOCC(COP(=O)([O-])OCC[N+](C)(C)C)OC (stereo not shown) [ET-18-OCH3, 2-Methoxy-3-(octadecyloxy)propyl 2-(trimethylammonio)ethyl phosphate]
- IC50 [28]: 9600 nM
- % change in abs ([12]; 10 μM): 5.73%
- % in NR fl ([12]; 10 μM): 50.05%
- % change in abs ([12]; 40 μM): −5.90%
- % in NR fl ([12]; 40 μM): 57.25%
